Reference: PubChem BioAssay AID1996
≈ marks a conversion by molar mass, not a printed value.

Settings: buffer; pH 7.4; 200.0 µM
In the case of NC(=O)c1cc[n+](Cc2ccc([N+](=O)[O-])cc2)cc1.[Br-], the solubility kinetic is reported as greater than 50.7 µg/mL. Compound CCOCCCNC(=O)c1oc2ccc3c(c2c1C)C(O)CC(C)(C)O3 (centres undefined) has a solubility kinetic greater than 54.2 µg/mL. Compound COc1ccc(/C=C/C(=O)NC(=S)Nc2ccccn2)cc1 has a solubility kinetic of 1.8 µg/mL (≈ 5.74 µM). CN(C)CCNC(=O)c1ccc2c(c1)NC(=O)c1ccccc1S2 showed a solubility kinetic greater than 51.2 µg/mL. Work on Cc1cc2oc(=O)c(CC(=O)NCCCO)c(C)c2c2occ(C(C)(C)C)c12 yielded a solubility kinetic of 28 µg/mL (≈ 72.6 µM). Compound CCCOc1ccc(CSC(=N)N)cc1C(=O)OC.Cl has a solubility kinetic of 42.6 µg/mL. With N/C(=N/OC(=O)c1cccc([N+](=O)[O-])c1)c1cccc([N+](=O)[O-])c1 the solubility kinetic was 0.5 µg/mL (≈ 1.51 µM). Work on CC1Oc2ccccc2N(CC(=O)N2CCCCC2)C1=O (centres undefined) yielded a solubility kinetic greater than 43.3 µg/mL. Work on COC(=O)/C=C1/SC(=NC(=O)c2ccc(F)cc2)NC1=O yielded a solubility kinetic greater than 46.2 µg/mL. Compound Cc1nc(N(C)Cc2ccccc2)c2c(C)c(C)sc2n1 has a solubility kinetic of 4.2 µg/mL (≈ 14.1 µM). With Nc1ccc(C(=O)O)c(O)c1 the solubility kinetic was greater than 23 µg/mL. Work on COc1ccc(CNC(=O)c2cccnc2)cc1 yielded a solubility kinetic greater than 36.3 µg/mL. For Cc1ccc(-c2cc(N)nc(-c3ccccc3)c2)cc1, the solubility kinetic was less than 0.3 µg/mL. COc1ccc(S(=O)(=O)N2CCN(C(=O)C3CCCCC3)CC2)cc1 gave a solubility kinetic of 53.7 µg/mL (≈ 147 µM). CC(C)(C)c1nc(SCC(=O)NC2CCCC2)c2ccccc2n1 showed a solubility kinetic of 0.6 µg/mL (≈ 1.75 µM). COc1ccc(OC)c(/C=C/C(=O)OCC(=O)N2CCCCC2)c1 showed a solubility kinetic greater than 50 µg/mL. In the case of COc1ccccc1CN(C)C(=O)COC(=O)c1ccc(Cl)nc1, the solubility kinetic is reported as greater than 52.3 µg/mL. Work on COc1ccc(C2=COc3ccccc3C(=O)N2)cc1 yielded a solubility kinetic of 11.4 µg/mL (≈ 42.7 µM). Work on Clc1ccc(NCc2cccnc2)c(Cl)c1 yielded a solubility kinetic of 29.1 µg/mL (≈ 115 µM). CCN(Cc1ccccc1)S(=O)(=O)c1ccc(OC)c2ncccc12 showed a solubility kinetic greater than 53.5 µg/mL. CN(Cc1ccccc1)S(=O)(=O)c1ccccc1[N+](=O)[O-] gave a solubility kinetic of 15.3 µg/mL (≈ 49.9 µM). Nc1ccc2nc(SCC(=O)c3ccccc3)sc2c1 showed a solubility kinetic of 1.8 µg/mL (≈ 5.99 µM). Work on O=C(COC(=O)COc1ccc(Cl)cc1Cl)NC1CCS(=O)(=O)C1 (centres undefined) yielded a solubility kinetic greater than 59.4 µg/mL. For O=C(O)/C=C/C(=O)Nc1ccc(OC(F)F)cc1, the solubility kinetic was greater than 38.6 µg/mL. N#Cc1ccc(CN2C(=O)NC3(CCCCCC3)C2=O)cc1 showed a solubility kinetic of 25.7 µg/mL (≈ 86.4 µM). Work on COc1cc(OC)cc(C(=O)Nc2nnc(-c3cccnc3)o2)c1 yielded a solubility kinetic greater than 48.9 µg/mL. N#Cc1ccc(CN2CCN(C(=O)CNS(=O)(=O)c3ccc4c(c3)OCCCO4)CC2)cc1 gave a solubility kinetic of 35.3 µg/mL (≈ 75 µM). In the case of O=C(/C=C/c1ccc([N+](=O)[O-])cc1)OCC(=O)c1ccc[nH]1, the solubility kinetic is reported as 3 µg/mL (≈ 9.99 µM). Compound CCc1ccccc1NC(=O)CN(C)C(=O)COC(=O)c1ccco1 has a solubility kinetic greater than 51.7 µg/mL. Work on COC(=O)c1ccc(NC(=O)C2CC(=O)OC2c2ccccc2)cc1 (centres undefined) yielded a solubility kinetic of 36 µg/mL (≈ 106 µM). In the case of CSC1=C(C#N)C(=O)NC(c2ccc(Cl)cc2)S1 (centres undefined), the solubility kinetic is reported as 11.9 µg/mL (≈ 40.1 µM). Cc1cc(C)c(C(=O)/C=C/c2cccs2)c(=O)[nH]1 showed a solubility kinetic of 34.4 µg/mL (≈ 133 µM). CCCCOc1ncnc2c1[nH]c1ccc(C)cc12 gave a solubility kinetic of 0.6 µg/mL (≈ 2.35 µM). Work on Cc1ccc(C(=O)NCC(=O)Nc2ccncc2)s1 yielded a solubility kinetic greater than 41.3 µg/mL. For C=Cc1ccc(Cn2c(C(=O)O)c(C=O)c3ccccc32)cc1, the solubility kinetic was greater than 45.8 µg/mL. O=C1/C(=C/c2ccsc2)N2CCC1CC2 gave a solubility kinetic of 25.9 µg/mL (≈ 118 µM). For Br.O=C(Cn1c(NCCO)nc2ccccc21)c1ccc(F)cc1, the solubility kinetic was 22.4 µg/mL. For Cc1ccccc1C(=O)NCCCn1ccnc1, the solubility kinetic was greater than 36.5 µg/mL. Work on CN(CC(=O)Nc1ccccc1Cl)C(=O)COC(=O)c1ccc(-c2ccc(O)cc2)cc1 yielded a solubility kinetic of 3.2 µg/mL (≈ 7.07 µM). For CCCN(CCC)S(=O)(=O)c1nc2nc(C)cc(C)n2n1, the solubility kinetic was greater than 46.7 µg/mL. Cc1ccc(C(=O)NCC(=O)Nc2ccncc2)cc1 showed a solubility kinetic greater than 40.4 µg/mL. In the case of C=CCn1c(=S)[nH]c2sc3c(c2c1=O)CCCC3, the solubility kinetic is reported as 14.7 µg/mL (≈ 52.8 µM). Work on Cc1ccc(NC(=O)CSc2nc(N)cc(=O)[nH]2)cc1S(=O)(=O)N1CCCCCC1 yielded a solubility kinetic of 10.6 µg/mL (≈ 23.5 µM). Cc1ccc2c(C(=O)CCl)c(C)[nH]c2c1 showed a solubility kinetic of 3.4 µg/mL (≈ 15.3 µM). In the case of COCCCn1c(=O)c2ccccc2n(Cc2ccc(C)cc2)c1=O, the solubility kinetic is reported as 2.1 µg/mL (≈ 6.21 µM). With CC(=O)C1=C(C)NC(C)=C(C(C)=O)C1c1ccccc1 the solubility kinetic was 35.3 µg/mL (≈ 131 µM). In the case of CC(=O)n1cc(Nc2ccc([N+](=O)[O-])cc2)c2ccccc21, the solubility kinetic is reported as 4.6 µg/mL (≈ 15.6 µM). Compound CC(C)n1cnc2c(oc3ccccc32)c1=O has a solubility kinetic of 7 µg/mL (≈ 30.7 µM). Cn1c(=O)c2[nH]cnc2n(C)c1=O gave a solubility kinetic greater than 27 µg/mL. Compound COc1ccccc1NC(=O)Cn1c([N+](=O)[O-])cnc1C has a solubility kinetic greater than 43.5 µg/mL. Compound O=C(Cc1cc2ccccc2o1)NCc1ccc(F)cc1 has a solubility kinetic of 5 µg/mL (≈ 17.6 µM). With CCC(CC)C(=O)OCC(=O)Nc1cccc([N+](=O)[O-])c1 the solubility kinetic was 43 µg/mL (≈ 146 µM). COc1ccc(S(=O)(=O)N(CCC#N)Cc2ccco2)cc1OC showed a solubility kinetic of 28.2 µg/mL (≈ 80.5 µM). CN(CC(=O)N1CCN(Cc2ccccc2)CC1)C(=O)Cc1ccc(Cl)c(Cl)c1 showed a solubility kinetic of 61.7 µg/mL (≈ 142 µM). Compound CS(=O)(=O)c1ccc(C(=O)Nc2ccccc2Cl)cc1 has a solubility kinetic greater than 46.5 µg/mL. Compound OCCC1CN(Cc2ccsc2)CCN1C1CCCC1 (centres undefined) has a solubility kinetic greater than 44.2 µg/mL. With Cn1c(=O)c2c(nc(NN=C3CCCC3)n2C)n(C)c1=O the solubility kinetic was greater than 43.5 µg/mL. CCc1ccc(NC(=O)Nc2ccc3c(c2)CCC3)cc1 showed a solubility kinetic of less than 0.3 µg/mL. For CS(=O)(=O)Nc1ccccc1C(=O)OCC(=O)NC1CC1, the solubility kinetic was greater than 46.9 µg/mL.
